Each structure is given as a SMILES string.

On to `CCCCOC(=O)CCCCC(=O)OCCCC`, for which the melting point is -32.4 °C. Compound `O=C1OC(O)c2cc(Cl)c(Cl)cc21` (stereo not given) showed a melting point of 180 °C. The compound `COc1nccnc1NS(=O)(=O)c1ccc(N)cc1` yielded a melting point of 176 °C. With `O=[N+]([O-])c1ccc(N=Nc2ccc(Nc3ccccc3)cc2)cc1`, the melting point worked out at 160 °C. On to `O=C(O)C(C(=O)O)c1ccccc1`, for which the melting point is 153 to 155 °C. Turning to `NC(=S)c1ccc(Cl)cc1Cl`, the melting point is 135 to 136 °C.

Take `CC(C)(C)OC(=O)N1CCC(Oc2ccccc2[N+](=O)[O-])CC1`: the melting point fell in the range of 91 to 93 °C. In the case of `CCCCOC(=O)C(=O)C1C(C)CC2C3CC(F)C4=CC(=O)C=CC4(C)C3C(O)CC21C` (stereo not given), the melting point is 195 °C. On to `OCc1cc(F)cc2c1OCOC2`, for which the melting point is 73.2 to 73.9 °C.

Take `O=C(O)Cc1ccc2c(c1)OCO2`: the melting point was in the range of 128 to 132 °C. `N#Cc1c(F)cccc1Oc1ccccc1` returned a melting point of 92 to 96 °C.

`CCCCCCCCCC(=O)c1ccccc1`: the melting point is 34 to 38 °C.

Consider `O=C1CCCCC1`, for which the melting point was -26 °C. Turning to `N#Cc1ccc(Cn2cccn2)cc1`, the melting point fell in the range of 80 to 82 °C. In turn, `Clc1c(Cl)c(Cl)c2nccnc2c1Cl` registered a melting point of 190 °C. Regarding `O=C1c2ccccc2C(=O)C1C(=O)C(c1ccccc1)c1ccc(Cl)cc1` (stereo not given), the melting point was 140 °C. The compound `O=CCc1ccccc1` displayed a melting point of 33.5 °C. In the case of `O=C(O)COC(=O)Cc1ccccc1Nc1c(Cl)cccc1Cl` it was 149 °C.

Turning to `O=C(NC(Cc1cccnc1)C(=O)O)OCC1c2ccccc2-c2ccccc21` (stereo not given), the melting point was 166 °C. The compound `COC(=O)CCc1ccc(OC)c(O)c1` displayed a melting point of 78 °C.

As to `Cc1nc2ccccn2c1C=O`, the melting point fell in the range of 117 to 118 °C.

`Nc1cc(F)c(F)c(F)c1F`: the melting point was determined as 28 °C. `CC(=O)C(C#N)(Cc1ccc([N+](=O)[O-])cc1)c1ccccc1` (stereo not given) yielded a melting point of 82 °C. For `CC(C)(C)OC(=O)N[C@H](C(=O)O)c1ccc(F)cc1`, the melting point was found to be 130 °C. On to `OCc1cccc(COc2ccccc2)c1`, for which the melting point lay within 58 to 60 °C. For `CCOC(=O)NNC(=O)NC1CCCCC1`, the melting point lay within 115 to 117 °C. On to `CCOC(=O)CC1Sc2ccccc2NC1=O` (stereo not given), for which the melting point lay within 126 to 128 °C. On to `O=C1/C(=C/c2ccc([N+](=O)[O-])cc2)SC(=S)N1CN(CCCl)CCCl`, for which the melting point came to 284 °C. `COc1ccc(C(O)C(=O)O)cc1` (stereo not given) came in with a melting point of 108 to 111 °C. `CC(=NO)c1ccn(S(=O)(=O)c2ccccc2)c1` came in with a melting point of 162 to 165 °C. In the case of `NC(=O)CN(CC(=O)O)CC(=O)O`, the melting point came out at 219 °C. `O=C(O)CCCCc1ccc(F)cc1` had a melting point of 74 °C. With `CC(=O)c1cc(C)c(C)cc1O`, the melting point lay in the range of 69 to 73 °C. As to `CC(C)(C)c1ccc(C2CCC3(CC2)Cc2ccc(C(=O)Nc4ccccc4OCCCC(=O)O)cc2C3)cc1` (stereo not given), the melting point was found to be 150 °C. Compound `CC(=O)N(Nc1ccccc1)c1ccc(-c2ccc(N(Nc3ccccc3)C(C)=O)cc2)cc1` yielded a melting point of 235 °C. In turn, `BrCC(Br)C1CCC(Br)C(Br)C1` (stereo not given) showed a melting point of 70 °C. In the case of `Cc1cccc(NC(=O)c2cnc(C(C)(C)C)cn2)c1` it was 95 °C; in that of `Cc1nc2scc(-c3ccccc3)c2c(=O)n1NC(=O)c1ccc(Cl)cc1`, 235 to 236 °C; in that of `O=C1C=CC2C3C=CC(C3)C12` (stereo not given), 56 °C.

Consider `CN1CCC23c4c5ccc(OCCN6CCOCC6)c4OC2C(O)C=CC3C1C5` (stereo not given), for which the melting point stood at 91 °C. The compound `Cc1cccc([N+](=O)[O-])c1O` came in with a melting point of 70 °C. Regarding `Brc1ccc(Oc2ccccc2)c(Br)c1`, the melting point was under 20 °C. On to `Cc1cc(C)n(C(=O)CC#N)n1`, for which the melting point is 120 °C. As for `CCc1nn(C)c(C(=O)NCc2ccc(C(C)(C)C)cc2)c1Cl`, the melting point was 65 °C. In the case of `O=C1c2ccc(C(Br)Br)c([N+](=O)[O-])c2C(=O)c2c(Cl)c(Cl)c(Cl)c(Cl)c21` it was 246 to 248 °C. Turning to `O=C1c2ccccc2C(=O)N1CCNCCN1C(=O)c2ccccc2C1=O`, the melting point is 132 °C. Regarding `O=C1OCCC1N(C(=O)C1CC1)c1cccc(Cl)c1` (stereo not given), the melting point is 95 °C. Compound `COC(=O)c1cc2occc2n1C` yielded a melting point of 81 to 82 °C. `CCC1(CC)C(=O)C=CNC1=O` had a melting point of 90.7 °C. As to `COP(=O)(OC)OC=C(Cl)Cl`, the melting point was -60 °C.

As for `O=C(OCc1ccccc1)c1ccccc1O`, the melting point was 19 °C. As to `CCCCCC(O)C=CC1C(O)CC(=O)C1CC=CCCCC(=O)O` (stereo not given), the melting point turned out to be 67 °C. As to `O=C(NC(=O)C(F)(F)F)C(F)(F)F`, the melting point is 84 °C. As for `COc1ccc(-n2c(S)nnc2-c2ccc(OC(F)(F)F)cc2)cc1`, the figure is 178 to 180 °C; as for `CC(O)[C@@]1(O)CC[C@H]2[C@@H]3CCC4(C)C[C@H](O)CC[C@]4(C)[C@H]3CC[C@@]21C` (stereo not given in full), 254 to 255 °C; as for `C=Cc1c(C)cc(C)cc1C`, -37 °C. Compound `Cc1ccc(N=C(Nc2ccc(C)cc2)c2cc(C(C)(C)C)c(O)c(C(C)(C)C)c2)cc1` came in with a melting point of 207 °C. For `CN(C(=O)COc1nc2ccccc2s1)c1ccccc1`, the melting point was 135 °C. `O=c1cc(-c2ccccc2)oc2cc(O)ccc12` registered a melting point of 246 °C. As for `C=CCCCCCCCCCCC`, the figure is -13 °C. In turn, `O=[N+]([O-])c1ccc(O)c2ccccc12` showed a melting point of 166 °C.

For `COCc1cc(O)nc(SC)n1`, the melting point was in the range of 195 to 196 °C.

With `O=[N+]([O-])CC(Nc1ccccc1)c1cccc(C(C[N+](=O)[O-])Nc2ccccc2)c1` (stereo not given), the melting point was 127 °C.

Take `CC(CN(CC(=O)O)CC(=O)O)N(CC(=O)O)CC(=O)O` (stereo not given): the melting point fell in the range of 241 to 243 °C. In turn, `CC1(C)OC(=O)C(=NNc2cccc([N+](=O)[O-])c2)C(=O)O1` came in with a melting point of 192 °C. With `ClCc1csc(-c2ccc(Cl)cc2)n1`, the melting point lay within 78 to 79 °C. In the case of `CCOC(=O)c1ncn2c1CN(C)C(=O)c1cc(F)ccc1-2`, the melting point came to 202 °C. `Nc1ncnc2c1ncn2CCCNC(=O)c1cc([N+](=O)[O-])cc([N+](=O)[O-])c1` registered a melting point of 234 °C. Regarding `Cc1cc(C(F)(C(F)(F)F)C(F)(F)F)ccc1NC(=O)c1cccc(I)c1C(=O)NC(C)(C)CS(C)(=O)=O`, the melting point is 218 °C. As for `C=C1C(=O)C23C4CC5C(C)(C)CCC(OC(C)=O)C5(C)C2C(OC(C)=O)CC1(OC(C)=O)C3OC(C)(C)O4` (stereo not given), the figure is 221 °C; as for `O=C(c1ccc(O)cc1)c1ccc(O)cc1O`, 197 to 198 °C; as for `O=C(c1ccccc1)c1ccc2c(c1)OCCCO2`, 72 to 75 °C. `CN(C)C(=O)Nc1ccc(-n2nc(C(C)(C)C)oc2=O)c(Cl)c1` showed a melting point of 193 °C. As to `Cc1ccc(O)cc1N`, the melting point is 158 °C. In the case of `CC(NC(C)(C)C)C(=O)c1cccc(Cl)c1` (stereo not given) it was 234 °C. Compound `Cn1nc(-c2ccccc2)cc1N` displayed a melting point of 132 to 135 °C.

On to `O=C(Oc1ccc(Cl)cc1)c1c(Cl)c(Cl)c(C(=O)Oc2ccc(Cl)cc2)c(Cl)c1Cl`, for which the melting point amounted to 244 °C. On to `CCC1C(C=NO)=NC(C)(C)N1O` (stereo not given), for which the melting point lay in the range of 163 to 164 °C.

Regarding `Nc1nc(O)cc(C(F)(F)F)n1`, the melting point is 290 °C. In turn, `CC(C)C[C@H](NC(=O)CN)C(=O)O` registered a melting point of 233 to 235 °C. In the case of `OCc1ccc(-c2cccs2)s1` it was 51 to 54 °C; in that of `O=C(CC(=O)c1ccccc1O)c1ccccc1`, 120 °C; in that of `O=C(NC(CO)C(=O)O)OCc1ccccc1` (racemic), 122 to 126 °C. On to `O=C1C=CC(=O)N1c1ccc(-c2nc3ccccc3o2)cc1`, for which the melting point is 211 to 213 °C.

In turn, `Cc1ccc(OCCCCBr)cc1` gave a melting point of 40 °C.

For `O=[N+]([O-])c1ccc(Cl)cc1[N+](=O)[O-]`, the melting point lay within 40 to 41 °C. `COc1ccc(-c2ccccc2)cc1NC(=O)C(C(F)(F)F)C(F)(F)F` returned a melting point of 211 °C. As for `COC(=O)[C@H]1C[C@H](NC(=O)OC(C)(C)C)[C@@H](O)C1`, the melting point amounted to 71.2 °C. In the case of `O=C(NNc1ccccc1)c1ccccc1`, the melting point was found to be 168 °C. Regarding `Cc1oc(-c2ccccc2)nc1C(=O)Cl`, the melting point was in the range of 135 to 136 °C.

With `O=Cc1ccccc1OCCN1CCOCC1`, the melting point is 43 to 45 °C.

In turn, `O=C(Nc1cccc(C(F)(F)F)c1)Nc1nnc(-c2ccc(Cl)cc2)o1` gave a melting point of 236 to 238 °C.

On to `N#CC(=S)Nc1ccccc1`, for which the melting point lay within 75 to 80 °C. In the case of `O=C1C=CC(=O)N1c1cccnc1Cl` it was 115 to 117 °C; in that of `Cc1ccc(S(=O)c2ccc(C)cc2)cc1`, 95 °C. In the case of `c1ccc2c(c1)Sc1ccccc1N2CC1CN2CCC1CC2` (stereo not given) it was 130 °C. `O=C(O)CC(F)(F)C(=O)O` gave a melting point of 142 °C.

For the compound `O=C(CCl)C(Cl)(Cl)Cl`, the melting point amounted to 65 °C. As to `Cc1cnc(N)c(Br)c1`, the melting point was found to be 72 °C. Consider `CCc1cc(Cc2cc(CC)cc(C(C)(C)C)c2O)c(O)c(C(C)(C)C)c1`, for which the melting point was 120 °C.

As for `Cc1ccccc1N=Nc1c(N)ccc2ccccc12`, the melting point came to 126 °C. As to `CC(=O)OC(=CC=C(OC(C)=O)c1ccccc1)c1ccccc1`, the melting point is 174 to 176 °C. Compound `O=C=Nc1ccc(Cl)c([N+](=O)[O-])c1` had a melting point of 66 °C.

`O=C(Nc1ccccc1)C(Cl)=NNc1ccccc1` registered a melting point of 159 to 161 °C. The compound `Cc1nc(-c2ccc(N)cc2)cs1` registered a melting point of 140 to 141 °C.

The values are drawn from a melting point compilation (Tetko et al.).
